{"source": "patent US6989380B2", "about": "“Treatment of pain” (The WKK Trust, priority 1996, dated 2006)"}
{"test_system": "intractable trigeminal neuralgia", "assay": "Case history: intractable trigeminal neuralgia", "type": "in vivo, human", "settings": "person; treatments tried before the combination; relief attributed to placebo effects", "experimental": "A person suffered from intractable trigeminal neuralgia of many years standing. […] They then were treated with lofepramine, 70 mg bd, together with L-phenylalanine, 500 mg bd."}
{"smiles": "NC(=O)N1c2ccccc2C=Cc2ccccc21", "note": "[carbamazepine]", "pain relief with earlier treatments": "None had provided more than transient relief for a few days"}
{"smiles": "CN1C(=O)CN=C(c2ccccc2)c2cc(Cl)ccc21", "note": "[diazepam]", "pain relief with earlier treatments": "None had provided more than transient relief for a few days"}
{"smiles": "CNCCC(Oc1ccc(C(F)(F)F)cc1)c1ccccc1", "note": "(centres unmarked) [fluoxetine]", "pain relief with earlier treatments": "None had provided more than transient relief for a few days"}
{"smiles": "CN1CC[C@]23c4c5ccc(O)c4O[C@H]2[C@@H](O)C=C[C@H]3[C@H]1C5", "note": "[morpine]", "pain relief with earlier treatments": "None had provided more than transient relief for a few days"}
{"smiles": "O=C1NC(=O)C(c2ccccc2)(c2ccccc2)N1", "note": "[phenytoin]", "pain relief with earlier treatments": "None had provided more than transient relief for a few days"}
